Results reported in patent publication US20080255186A1, “Pyrazolo[3,4-B]Pyridine Compound, and Its Use as a Pde4 Inhibitor” (priority 2005, published 2008).

Target: PDE4D (human recombinant) (Homo sapiens, UniProt Q08499)
Assay: PDE4D inhibition, IMAP Fluorescence Polarisation (FP) assay
Format: biochemical
Conditions: mean of n = 3 readings; accurate to about ±0.5 log unit; read-out: PDE4D pIC50 (± about 0.5) (FP assay), Mean pIC50 value (converted)
Description: Human recombinant PDE4D (HSPDE4D3A) is disclosed in P. A. Baecker et al., “Isolation of a cDNA encoding a human rolipram-sensitive cyclic AMP phoshodiesterase (PDE IVD)”, Gene, 1994, 138, 253-256.
The ability of compounds to inhibit catalytic activity at PDE4B (human recombinant) or PDE4D (human recombinant) can optionally be determined by IMAP Fluorescence Polarisation (FP) assay (IMAP Explorer kit, available from Molecular Devices Corporation, Sunnydale, Calif., USA; Molecular Devices code: R8062) in 384-well format.
The IMAP FP assay is able to measure PDE activity in an homogenous, non-radioactive assay format. […] Binding of Fl-AMP product to the beads (coated with the immobilised trivalent cations) slows the rotation of the bound Fl-AMP and leads to an increase in the fluorescence polarisation ratio of parallel to perpendicular light. […]
Test compounds (small volume, e.g. ca. 0.5 to 1 microlitres (ul), suitably ca. 0.5 ul, of solution in DMSO) are preincubated at ambient temperature (room temperature, e.g. 19-23° C.) in black 384-well microtitre plates (supplier: NUNC, code 262260) with PDE enzyme in 10 mM Tris-HCl buffer pH 7.2, 1 mM MgCl2, 0.1% (w/v) bovine serum albumin, and 0.05% NaN3 for 10-30 minutes. […] The Fluorescence Polarisation (FP) ratio of parallel to perpendicular light is measured using an Analyst™ plate reader (from Molecular Devices Corporation). […]

Chain of PDE4D (human recombinant) (Q08499 1-673 isoform Q08499-2): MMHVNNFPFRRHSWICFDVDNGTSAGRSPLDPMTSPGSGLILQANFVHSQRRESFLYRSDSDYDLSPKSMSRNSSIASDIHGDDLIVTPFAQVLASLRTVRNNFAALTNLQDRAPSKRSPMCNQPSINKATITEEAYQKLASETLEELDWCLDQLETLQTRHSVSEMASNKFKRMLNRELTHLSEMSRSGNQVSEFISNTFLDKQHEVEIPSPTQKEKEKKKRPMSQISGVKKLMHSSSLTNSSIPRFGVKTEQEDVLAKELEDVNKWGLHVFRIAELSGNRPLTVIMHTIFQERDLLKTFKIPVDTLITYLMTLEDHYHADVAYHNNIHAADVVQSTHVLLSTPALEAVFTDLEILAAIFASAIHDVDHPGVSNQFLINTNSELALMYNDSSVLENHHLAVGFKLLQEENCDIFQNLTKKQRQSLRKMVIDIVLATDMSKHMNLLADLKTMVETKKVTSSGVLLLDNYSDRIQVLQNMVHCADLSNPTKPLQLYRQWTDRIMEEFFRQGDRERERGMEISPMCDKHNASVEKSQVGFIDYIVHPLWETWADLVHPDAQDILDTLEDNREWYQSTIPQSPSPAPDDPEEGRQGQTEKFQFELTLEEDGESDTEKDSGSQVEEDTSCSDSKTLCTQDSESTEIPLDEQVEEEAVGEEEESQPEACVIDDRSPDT

## CCc1nc2c(cnn2CC)c(NC2CCOCC2)c1CNC(=O)c1cc(C)no1 [Example 1, N-{[1,6-diethyl-4-(tetrahydro-2H-pyran-4-ylamino)-1H-pyrazolo[3,4-b]pyridin-5-yl]methyl}-3-methyl-5-isoxazolecarboxamide]
  IC50: ~100 pM
